# US4190642A, “Ocular therapeutic system for dispensing a medication formulation” (Alza Corporation, priority 1979, dated 1980)
# Counter-ions that a name gives are not always drawn. Like-named read-outs stand apart in the source and are kept apart here.
# What was measured:
# [1] = solubility in water
# Text: (§1) System 10 houses in depot 14 from about 1 to 40 weight percent of pilocarpine solute and from 1 to 25 weight percent of epinephrine solute, with the remaining weight percent of system 10 polymer 12. […] Generally, the pilocarpine solute and the epinephrine solute will have a particle size of about 0.1 to 100 microns, and a presently preferred particle size of about 0.5 to 20 microns. The osmotic delivery device consisting of sole drug solute of a specific particle size dispersed in a polymer is the invention of Michaels and Guillod as disclosed and claimed in copending U.S. Patent Application Ser. No. 855,605, filed on Nov. 29, 1977. This application and the copending application are both assigned to the Alza Corporation of Palo Alto, California.
# Next, the contents of the bowl are removed, cut into 3 mm ×3 mm pieces with a multi-blade strip die and the strips fed to the hopper of an extruder. The pieces have a residence time of 5 minutes in the extruder with the screw of the extruder rotating at 20 rpm. A film is extruded through a 12 mil opening at the end of the extruder and punched into 13.5×5.8 mm inserts.
# [2] = osmotic pressure (vapor pressure osmometer); assay type: physicochemical
# Text: as §1, with “The osmotic delivery device consisting of sole drug solute of a specific particle size dispersed in a polymer is the invention of Michaels and Guillod as disclosed and claimed in copending U.S. Patent Application Ser. No. 855,605, filed on Nov. 29, 1977.” left out
# The osmotic pressure, ATM, of the above solutes can be measured in a commercially available osmometer that measures the vapor pressure difference between pure water and the solution containing a solute to be analyzed, and according to standard thermodynamic principles, the vapor pressure ratio is converted into osmotic pressure difference.
SMILES,"solubility ([1]; water, solubility in water, 37° C.) [mg/mL]","solubility ([1]; water, solubility, water solution) [mg/mL]",osmotic pressure [2] [atmospheres],osmotic pressure ([2]; Example 5) [ATM],"solubility ([1]; water solution, hydrochloride)",osmotic pressure ([2]; hydrochloride) [atmospheres],solubility ([1]; water),"solubility ([1]; water, solubility in water) [mg/mL]"
CNC[C@H](O)c1ccc(O)c(O)c1 [epinephrine bitartrate],670,670,78.5,78.5,–,–,–,–
CNC[C@H](O)c1ccc(O)c(O)c1 [epinephrine hydrochloride],–,–,–,–,80 grams in 100 ml of water solution,185,–,–
CC[C@@H]1C(=O)OC[C@@H]1Cc1cncn1C [pilocarpine hydrochloride],–,–,–,–,–,300,80 grams in 100 ml of water solution,–
CC[C@@H]1C(=O)OC[C@@H]1Cc1cncn1C [pilocarpine nitrate],–,–,37,37,–,–,27 grams in 100 ml of water solution,270
